Key:
dogs = experiment: Dog toxicity studies, cholesterol levels; assay type: in vivo; conditions: dosage of 8 mg/kg stated for the 2-ethyl compound
mice [1] = experiment: Apomorphine-induced climbing behaviour; assay type: in vivo
mice [2] = experiment: Apomorphine-induced hypothermia; assay type: in vivo
rats [3] = experiment: Conditioned avoidance response; assay type: in vivo; conditions: Rattus norvegicus, read-out: ED50, inhibition of conditioned avoidance response
D-1 and D-2 receptors = experiment: Prevention of EEDQ disruption of the apomorphine-induced climbing response; assay type: in vivo; conditions: 24 hour pretreatment with EEDQ
rats [4] = experiment: Multiple conflict schedule (Geller and Seifter); assay type: in vivo; conditions: dosed orally 60 minutes before testing
From the text: Moore, Nicholas A. et al., The Journal of Pharmacology and Experimental Therapeutics. 545-551, 262:2 (1992). The test measures characteristic changes in rates of responding associated with anxiolytic agents. The conflict procedure results are indicative of favorable anxiolytic activity.
The conflict procedure used was based on the method of Geller and Seifter, Psychopharmacologia 1: 482-492, (1960). Rats were trained on a multiple schedule consisting of three components. Individual components were as follows: 1) for 9 minutes, lever pressing was reinforced on a variable interval 30 second schedule (VI 30, reward). This period was signaled by illumination of the houselight alone. 2) During the following 3-minute period, lever presses were recorded but had no programmed consequence (time-out). 3) Lever pressing was reinforced according to a fixed ratio 10 second food presentation (FR10) for 3 minutes; however, each reinforced response was accompanied by an electric current (0.5 mA) being applied to the grid floor for 500 msec (conflict). This component was signaled by illumination of the houselight and three cue lights on the front panel. This sequence of three components (reward/time-out/conflict) was presented twice in the same order during the daily 30 minute session.
After the training procedure, drug testing was initiated. […]

5-HT-1C receptor = biological target: T1, 5-HT-1C receptor (Homo sapiens, UniProt P28335); experiment: Activity at the 5-HT-1C receptor; assay type: binding
T1 sequence (P28335 33-458): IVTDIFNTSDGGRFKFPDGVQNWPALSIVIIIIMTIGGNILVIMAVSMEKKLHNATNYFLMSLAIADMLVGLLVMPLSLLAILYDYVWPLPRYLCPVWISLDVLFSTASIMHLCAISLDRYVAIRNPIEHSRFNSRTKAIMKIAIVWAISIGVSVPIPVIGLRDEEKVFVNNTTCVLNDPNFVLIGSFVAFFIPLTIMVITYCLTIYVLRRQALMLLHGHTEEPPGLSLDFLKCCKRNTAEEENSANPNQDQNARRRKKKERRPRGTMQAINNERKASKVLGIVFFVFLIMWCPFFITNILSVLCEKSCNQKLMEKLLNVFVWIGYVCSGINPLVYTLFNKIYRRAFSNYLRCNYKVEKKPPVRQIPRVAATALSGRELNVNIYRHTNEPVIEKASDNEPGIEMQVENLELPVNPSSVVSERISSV

[5] = Studies using radiolabelled compound, saliva residues; assay type: in vivo
Description: For example, in the treatment of adult humans, dosages of from 0.25 to 30 mg, preferably from 1 to 20 mg, per day may be used. A once a day dosage is normally sufficient, although divided doses may be administered. For treatment of psychotic disorders a dose range of from 1 to 20 mg, preferably 2.5 to 15 mg per day is suitable, whereas for mild anxiety states a lower dosage range, such as from 0.25 to 5 mg, preferably 1 to 5 mg, may be more appropriate. In choosing a suitable regimen for patients suffering from psychotic illness it may frequently be necessary to begin with a dosage of from 1 to 20 mg per day and when the illness is under control to reduce to a dosage as low as 1 mg per day.

[6] = tested on: noradrenergic α-receptors; experiment: Pharmacological tests, noradrenergic α-receptors
From the text: These properties indicate that the compound is a potential neuroleptic with relaxant, anxiolytic and anti-emetic properties, and may be useful in treating psychotic conditions such as, but not limited to, schizophrenia, schizophreniform diseases and mania. At lower doses the compound is indicated for use in the treatment of mild anxiety states.

patients [7] = conditions: compared with flumezapine
patients [8] = conditions: cited from earlier work
[9] = tested on: psychiatric patients suffering from schizophrenia; experiment: Clinical trial of flumezapine in psychiatric patients suffering from schizophrenia; assay type: in vivo, human
From the text: The lead compound from this group, flumezapine, (7-fluoro-2-methyl-10-(4-methyl-1-piperazinyl)-4H-thieno[2,3-b][1,5]-benzodiazepine), was developed to the stage of being clinically administered to psychiatric patients suffering from schizophrenia. A total of 17 patients received treatment with flumezapine before the clinical trial was terminated after consultation with the U.S. Food and Drug Administration, because of an unacceptably high incidence of raised enzyme levels in the treated patients. […] In respect of its tendency to raise liver enzyme levels, flumezapine is similar to chlorpromazine, an antipsychotic which has long been in use but whose safety has been called into question.

Q: Which results are given for `Cc1cc2c(s1)Nc1ccccc1N=C2N1CCN(C)CC1`?
A: rise in cholesterol levels (dogs): did not show any rise in cholesterol levels; dose antagonizing apomorphine-induced climbing behaviour (mice [1]): less than 10 mg/kg; dose antagonizing apomorphine-induced hypothermia (mice [2]): less than 10 mg/kg; ED50 (rats [3]): 4 to 7 mg/kg; active dose, prevention of disruption of climbing response by EEDQ (D-1 and D-2 receptors): less than 10 mg/kg; active dose in multiple conflict schedule (rats [4]): less than 5 mg/kg; activity at the 5-HT-1C receptor (5-HT-1C receptor): active; residues in saliva [5]: residues have been detected in the saliva; activity at noradrenergic α-receptors [6]: antagonist activity; plasma levels of creatinine phosphokinase (CPK) (patients [7]): lower than with flumezapine

Q: With `CCc1cc2c(s1)Nc1ccccc1N=C2N1CCN(C)CC1` [2-ethyl-4-(4-methyl-1-piperazinyl)-10H-thieno[2,3-b][1,5]benzodiazepine, reference compound] as the compound, how does the “rise in cholesterol levels” value (dogs) read?
A: Its value is “four out of eight dogs showed a significant rise in cholesterol levels”.

Q: Which “reported clinical side effects” value (patients [8]) does the source give for `CN1CCN(C2=Nc3cc(Cl)ccc3Nc3ccccc32)CC1` [clozapine] here?
A: Its value is “cause agranulocytosis in some patients”.

Q: Which “enzyme levels CPK, SGOT and SGPT in blood samples” value ([9]; 17 patients treated, trial terminated) does the source give for `Cc1cc2c(s1)Nc1ccc(F)cc1N=C2N1CCN(C)CC1` [flumezapine, 7-fluoro-2-methyl-10-(4-methyl-1-piperazinyl)-4H-thieno[2,3-b][1,5]-benzodiazepine] here?
A: The value was “in substantial excess of normal values”.

Q: What about the “emergence of extrapyramidal side effects as measured on the AIMS scale” value ([9]; clinical trials) of the same compound?
A: The value was “two of the patients showed the emergence of extrapyramidal side effects”.

Q: With `O=C(CCCN1CCC(O)(c2ccc(Cl)cc2)CC1)c1ccc(F)cc1` [haloperidol] as the compound, how does the “reported clinical side effects” value (patients [8]) read?
A: The value was “high incidence of extrapyramidal symptoms”.
